Here are results for eight molecules from ChEMBL document CHEMBL5303304, “EUbOPEN Chemogenomics Library - IncuCyte” (2023).

Type in all cases: toxicity, cell-based
In one data set the test system is U2OS. The data set is described as follows: Incucyte cell viability with U2OS. The conditions noted are these: human, 10 µM, compound concentration 10 uM.
A further data set relates to HEK-293T. The data set is described as follows: Incucyte cell viability with HEK293T. The settings on record: human, 10 µM, compound concentration 10 uM.
A further data set has as its system Fibroblast. The data set is described as follows: Incucyte cell viability with human fibroblast. The settings on record: 10 µM, compound concentration 10 uM.
Note: unitless GR value; below 1 slowed growth and below 0 cell loss.

In the case of `[2H]C([2H])([2H])NC(=O)c1nnc(NC(=O)C2CC2)cc1Nc1cccc(-c2ncn(C)n2)c1OC` [DEUCRAVACITINIB], the “Growth Rate” value in the data set on U2OS (0 h, replicate number 1) is reported as 0.39; in the data set on U2OS (6 h, replicate number 1) it was 0.29; with U2OS (6 h, replicate number 2) it was 0.63; with U2OS (12 h, replicate number 1), 0.68; with U2OS (12 h, replicate number 2), 0.76; with U2OS (18 h, replicate number 1) it was 0.89. For the same molecule, the “Growth Rate” value is 0.71 in the data set on U2OS (18 h, replicate number 2); 0.97 with U2OS (24 h, replicate number 1); 0.74 in the data set with U2OS (24 h, replicate number 2); 0.09 with HEK-293T (0 h, replicate number 2); 0.66 in the data set on HEK-293T (6 h, replicate number 1); 0.51 in the data set with HEK-293T (6 h, replicate number 2). Besides, the “Growth Rate” value was 0.82 in the data set on HEK-293T (12 h, replicate number 1); 0.56 with HEK-293T (12 h, replicate number 2); 0.78 in the data set on HEK-293T (18 h, replicate number 1); 0.68 with HEK-293T (18 h, replicate number 2); 0.85 in the data set on HEK-293T (24 h, replicate number 1); 0.76 in the data set with HEK-293T (24 h, replicate number 2). Besides, the “Growth Rate” value in the data set with Fibroblast (0 h, replicate number 1) is listed as 0.51; in the data set on Fibroblast (0 h, replicate number 2), 0; in the data set with Fibroblast (18 h, replicate number 2) it was 0.85; with Fibroblast (24 h, replicate number 2) it was 0.9.
With `C[C@@H]1CC[C@@]2(OC1)O[C@H]1[C@@H](O)[C@H]3[C@@H]4CC[C@H]5C[C@@H](O[C@@H]6O[C@H](CO)[C@H](O[C@@H]7O[C@H](CO)C(O)[C@H](O[C@@H]8OC[C@@H](O)[C@H](O)[C@H]8O)[C@H]7O[C@@H]7O[C@H](CO)[C@H](O)[C@H](O[C@@H]8O[C@H](CO)[C@@H](O)[C@H](O)[C@H]8O)[C@H]7O)[C@H](O)[C@H]6O)[C@H](O)C[C@]5(C)[C@H]4CC[C@]3(C)[C@H]1[C@@H]2C` (stereo partly drawn) [DIGITONIN], the “Growth Rate” value stood at 0.49 in the data set with U2OS (0 h, replicate number 1); 0.74 in the data set on U2OS (0 h, replicate number 2); 0.68 in the data set on U2OS (6 h, replicate number 2); 0.85 in the data set with U2OS (12 h, replicate number 1); 0.67 in the data set on U2OS (12 h, replicate number 2); 0.96 with U2OS (18 h, replicate number 1). For the same molecule, the “Growth Rate” value in the data set on U2OS (18 h, replicate number 2) is 0.6; in the data set on U2OS (24 h, replicate number 1), 1; in the data set with U2OS (24 h, replicate number 2) it was 0.6; with HEK-293T (0 h, replicate number 1), -0.37; in the data set on HEK-293T (6 h, replicate number 2) it was 0.94; in the data set on HEK-293T (12 h, replicate number 2) it was 0.65. In addition, the “Growth Rate” value in the data set with HEK-293T (18 h, replicate number 2) turned out to be 0.68; in the data set with HEK-293T (24 h, replicate number 2), 0.72; in the data set on Fibroblast (0 h, replicate number 1) it was 0.3; with Fibroblast (0 h, replicate number 2), 0.94; in the data set on Fibroblast (6 h, replicate number 2), 0.68; in the data set with Fibroblast (12 h, replicate number 2) it was 0.67. Also, the “Growth Rate” value in the data set on Fibroblast (18 h, replicate number 1) came to 0.93; in the data set on Fibroblast (18 h, replicate number 2), 0.73; in the data set with Fibroblast (24 h, replicate number 1), 0.88; in the data set on Fibroblast (24 h, replicate number 2), 0.85.
With `COc1ccc([C@@H]2Sc3ccccc3N(CCN(C)C)C(=O)[C@@H]2OC(C)=O)cc1.Cl` [DILTIAZEM HYDROCHLORIDE], the “Growth Rate” value in the data set on U2OS (0 h, replicate number 2) is recorded as -0.41; in the data set with U2OS (18 h, replicate number 2), 0.94; in the data set with HEK-293T (0 h, replicate number 1), 0.6; with HEK-293T (6 h, replicate number 2) it was 0.11; in the data set with HEK-293T (12 h, replicate number 2), 0.55; in the data set with HEK-293T (18 h, replicate number 2), 0.86. The “Growth Rate” value in the data set on HEK-293T (24 h, replicate number 2) is 0.86; in the data set on Fibroblast (0 h, replicate number 1) it was 0.54; in the data set on Fibroblast (0 h, replicate number 2) it was -0.94; with Fibroblast (12 h, replicate number 1), -0.67; with Fibroblast (18 h, replicate number 1) it was 0.89; with Fibroblast (18 h, replicate number 2), 0.94. In addition, the “Growth Rate” value came to 0.57 in the data set with Fibroblast (24 h, replicate number 1) and 0.87 in the data set on Fibroblast (24 h, replicate number 2).
As to `C[S+](C)[O-]` [DIMETHYL SULFOXIDE], the “Growth Rate” value is given as 0.1 in the data set on U2OS (0 h, replicate number 2); 0.89 in the data set with U2OS (6 h, replicate number 1); 0.27 in the data set on U2OS (6 h, replicate number 2); 0.44 in the data set on U2OS (12 h, replicate number 2); 0.5 with U2OS (18 h, replicate number 2); 0.44 with U2OS (24 h, replicate number 2). The “Growth Rate” value with HEK-293T (0 h, replicate number 1) came out at 0.12; in the data set with HEK-293T (0 h, replicate number 2), 0.07; with HEK-293T (6 h, replicate number 2), 0.48; in the data set on HEK-293T (12 h, replicate number 1), 0.83; with HEK-293T (12 h, replicate number 2), 0.78; with HEK-293T (18 h, replicate number 1), 0.88. The “Growth Rate” value is reported as 0.83 with HEK-293T (18 h, replicate number 2); 0.9 with HEK-293T (24 h, replicate number 1); 0.69 with HEK-293T (24 h, replicate number 2); 0.99 with Fibroblast (6 h, replicate number 1); 0.8 in the data set on Fibroblast (6 h, replicate number 2); 0.83 in the data set with Fibroblast (12 h, replicate number 2). Also, in the data set with Fibroblast (18 h, replicate number 1), the “Growth Rate” value was found to be 0.87.
In the case of `Cc1ccc(-n2nc(C(C)(C)C)cc2NC(=O)Nc2ccc(OCCN3CCOCC3)c3ccccc23)cc1` [DORAMAPIMOD], the “Growth Rate” value in the data set with U2OS (0 h, replicate number 1) is listed as -1; in the data set with U2OS (12 h, replicate number 2) it was 0.9; in the data set with U2OS (18 h, replicate number 2), 0.87; in the data set on U2OS (24 h, replicate number 2), 0.76; in the data set with HEK-293T (0 h, replicate number 1), -0.47; in the data set on HEK-293T (6 h, replicate number 1), 0.67. Moreover, the “Growth Rate” value with HEK-293T (12 h, replicate number 1) is 0.67; in the data set with HEK-293T (18 h, replicate number 1), 0.87; with HEK-293T (24 h, replicate number 1) it was 0.95; in the data set on Fibroblast (0 h, replicate number 2), 0.08.
For `CSc1ccc(C(=O)/C=C/c2cc(C)c(OC(C)(C)C(=O)O)c(C)c2)cc1` [ELAFIBRANOR], the “Growth Rate” value with U2OS (0 h, replicate number 1) was -0.15; with U2OS (0 h, replicate number 2) it was 0.75; with U2OS (6 h, replicate number 1), 0.88; in the data set with U2OS (6 h, replicate number 2), 0.45; in the data set on U2OS (12 h, replicate number 1), 0.63; in the data set with U2OS (12 h, replicate number 2) it was 0.69. Besides, the “Growth Rate” value in the data set on U2OS (18 h, replicate number 1) is 0.88; in the data set with U2OS (24 h, replicate number 1), 0.92; with U2OS (24 h, replicate number 2) it was 0.76; with HEK-293T (0 h, replicate number 1), 0.18; in the data set on HEK-293T (6 h, replicate number 2) it was 0.6; in the data set with HEK-293T (12 h, replicate number 2), 0.79. The “Growth Rate” value in the data set with HEK-293T (18 h, replicate number 2) is recorded as 0.97; in the data set on HEK-293T (24 h, replicate number 2), 0.99; with Fibroblast (0 h, replicate number 1), 0.61; in the data set with Fibroblast (0 h, replicate number 2) it was 0.85; in the data set on Fibroblast (6 h, replicate number 2), 0.74; in the data set with Fibroblast (12 h, replicate number 2), 0.59. In addition, the “Growth Rate” value in the data set on Fibroblast (18 h, replicate number 1) is on record as 0.87; with Fibroblast (18 h, replicate number 2), 0.9; with Fibroblast (24 h, replicate number 2) it was 0.75.
Consider `OC(CN1CCC(Cc2ccc(F)cc2)CC1)c1ccc(Cl)cc1` (stereo not drawn) [ELIPRODIL], for which the “Growth Rate” value is listed as -0.72 in the data set on U2OS (0 h, replicate number 2); 0.95 in the data set on U2OS (12 h, replicate number 2); 0.62 in the data set on HEK-293T (0 h, replicate number 2); 0.57 with HEK-293T (12 h, replicate number 1); 0.88 with HEK-293T (18 h, replicate number 1); -0.95 in the data set with Fibroblast (0 h, replicate number 2). For the same molecule, the “Growth Rate” value is -0.61 in the data set with Fibroblast (6 h, replicate number 1); 0.5 with Fibroblast (6 h, replicate number 2); -0.13 in the data set on Fibroblast (12 h, replicate number 1).
`COc1cc(F)ccc1-c1cc(Nc2cc(CS(C)(=N)=O)ccn2)ncc1F` (stereo not drawn) [ENITOCICLIB]: the “Growth Rate” value is reported as -1 in the data set with U2OS (0 h, replicate number 1); 0.69 in the data set with U2OS (6 h, replicate number 2); 0.57 in the data set with U2OS (12 h, replicate number 1); 0.36 with U2OS (12 h, replicate number 2); 0.29 with U2OS (18 h, replicate number 1); 0.3 in the data set on U2OS (18 h, replicate number 2). Besides, the “Growth Rate” value was 0.27 in the data set on U2OS (24 h, replicate number 1); 0.14 in the data set with U2OS (24 h, replicate number 2); -1 in the data set with HEK-293T (0 h, replicate number 1); 0.31 with HEK-293T (0 h, replicate number 2); 0.19 in the data set with HEK-293T (6 h, replicate number 1); -0.19 in the data set with HEK-293T (6 h, replicate number 2). The “Growth Rate” value in the data set on HEK-293T (12 h, replicate number 1) is given as -0.15; in the data set with HEK-293T (12 h, replicate number 2), -0.41; in the data set with HEK-293T (18 h, replicate number 1) it was -0.19; with HEK-293T (18 h, replicate number 2), -0.4; in the data set on HEK-293T (24 h, replicate number 1), -0.17; in the data set with HEK-293T (24 h, replicate number 2) it was -0.34. For the same molecule, the “Growth Rate” value in the data set with Fibroblast (0 h, replicate number 1) is given as -1; in the data set on Fibroblast (18 h, replicate number 2) it was 0.96; in the data set with Fibroblast (24 h, replicate number 2) it was 0.69.
